Assay results from patent publication US20190330189A1, “ANTIBACTERIAL COMPOUNDS” (Janssen Sciences Ireland UC, priority 2015, published 2019).
Where two headings read alike, the source gives them in different places.

Assays:
[1] = system: Mycobacterium tuberculosis strain H37Rv; assay: Test 1: MIC determination, resazurin fluorescence, M. tuberculosis H37Rv; type: cell-based; conditions: for IC50: Mycobacterium tuberculosis, H37RV
[2] = system: Mycobacterium tuberculosis strain EH 4.0 (361.269); assay: Test 4: MIC determination, resazurin fluorescence, strain EH 4.0; type: cell-based; conditions: for IC50: Mycobacterium tuberculosis, read-out: pIC50, Test 4, M. tuberculosis strain EH 4.0 (361.269) (converted); for pIC50: Test 4, M. tuberculosis strain EH 4.0 (361.269)
Text: TEST 4 (See Also Test 1 Above; in this Test a Different Strain of Mycobacterium tuberculosis Strain is Employed)
Appropriate solutions of experimental and reference compounds were made in 96 well plates with 7H9 medium. Samples of Mycobacterium tuberculosis strain EH 4.0 (361.269) were taken from cultures in stationary growth phase. These were first diluted to obtain an optical density of 0.3 at 600 nm wavelength and then diluted 1/100, resulting in an inoculum of approximately 5×10 exp5 colony forming units per well. Plates were incubated at 37° C. in plastic bags to prevent evaporation. After 7 days, resazurin was added to all wells.

[3] = Test 1, M. tuberculosis H37Rv, first test, read-out: pIC50 (converted)
[4] = Test 1, repeated (2nd) test, read-out: pIC50 * (converted)
[5] = Test 1, repeated (3rd) test, read-out: pIC50 ** (converted)
[6] = Test 1, M. tuberculosis H37Rv, first test

Compound	melting point [°C]	IC50 [1, 3] [nM]	IC50 [1, 4] [nM]	IC50 [1, 5] [nM]	IC50 [2] [nM]	other results
CCc1nc2ncc(Cl)cn2c1C(=O)NCc1ccc(N2CC3(CC(OC(F)F)C3)C2)cc1	163.21	–	–	–	–	–
CCc1nc2ccc(Cl)cn2c1C(=O)NCc1ccc(C2CC3(C2)CN(c2ccc(OC(F)(F)F)cc2)C3)cc1 [Compound 2]	–	16.2	14.8	11.7	50.1	–
CCc1nc2ncc(Cl)cn2c1C(=O)NCc1ccc(C2CC3(C2)CN(c2ccc(OC(F)(F)F)cc2)C3)cc1 [Compound 3]	–	25.7	26.3	25.7	5.01	–
CCc1nc2n(c1C(=O)NCc1ccc(N3CC4(C3)CN(c3ccc(OC(F)(F)F)cc3)C4)cc1)CCCC2 [Compound 6]	–	141	102	129	25.1	–
CCc1nc2ccc(Cl)cn2c1C(=O)NCc1ccc(N2CC3(CC(c4ccc(OC(F)(F)F)cc4)C3)C2)cc1 [Compound 7]	–	100	75.9	79.4	15.8	–
CCc1nc2ncc(Cl)cn2c1C(=O)NCc1ccc(N2CC3(CC(c4ccc(OC(F)(F)F)cc4)C3)C2)cc1 [Compound 8]	–	148	186	170	50.1	–
CCc1nc2ncc(Cl)cn2c1C(=O)NCc1ccc(N2CC3(CC(c4ccccc4)C3)C2)cc1 [Compound 9]	–	83.2	72.4	53.7	12.6	–
CCc1nc2ccc(Cl)cn2c1C(=O)NCc1ccc(N2CC3(CC(c4ccc(S(F)(F)(F)(F)F)cc4)C3)C2)cc1 [Compound 10]	–	148	141	107	31.6	–
CCc1nc2ncc(Cl)cn2c1C(=O)NCc1ccc(N2CC3(CC(c4cccnc4)C3)C2)cc1 [Compound 11]	–	1860	3020	1200	794	–
Cc1nc2sc(Br)cn2c1C(=O)NCc1ccc(N2CC3(CCC3)C2)cc1 [Compound 13]	–	269	257	263	31.6	–
CCc1nc2ccc(Cl)cn2c1C(=O)NCC1CCC2(CCN(c3ccc(OC(F)(F)F)cc3)CC2)CO1 (stereo not shown) [Compound 14]	–	2820	2950	–	398	–
CCc1nc2ccc(Cl)cn2c1C(=O)NCC1CC2(CCN(c3ccc(OC(F)(F)F)cc3)CC2)C1 [Compound 15]	–	102	95.5	–	158	–
CCc1nc2ccc(Cl)cn2c1C(=O)NCc1ccc(N2CC3(CC(F)C3)C2)cc1 [Compound 16]	–	–	–	–	–	pIC50 [1, 6]: 6.55; pIC50 * ([1]; Test 1, repeated (2nd) test): 6.61; pIC50 [2]: 8.0
CCc1nc2ccc(Cl)cn2c1C(=O)NCc1ccc(N2CC3(CC(F)C3)C2)cc1 [Compound 17]	–	–	316	468	–	pIC50 [1, 6]: 7.82; pIC50 [2]: 7.4
CCc1nc2sc(C)cn2c1C(=O)NCc1ccc(N2CC3(CC(F)C3)C2)cc1 [Compound 18]	–	191	123	126	31.6	–
CCc1nc2n(c1C(=O)NCc1ccc(N3CC4(CC(F)C4)C3)cc1)CCCC2 [Compound 19]	–	794	1150	1070	1260	–
CCc1nc2sc(C)cn2c1C(=O)NCc1ccc(N2CC3(CC(O)C3)C2)cc1 [Compound 20]	300	–	–	–	316	–
CCc1nc2sc(C)cn2c1C(=O)NCc1ccc(N2CC3(CC(=O)C3)C2)cc1 [Compound 21]	–	–	–	–	100	IC50 ([1]; read-out: pIC50 (converted)): 2450 nM; IC50 ([1]; read-out: pIC50 * (converted)): 1050 nM; IC50 ([1]; read-out: pIC50 ** (converted)): 1380 nM
Cc1nc2sccn2c1C(=O)NCc1ccc(N2CC3(CC(c4ccc(OC(F)(F)F)cc4)C3)C2)cc1 [Compound 24]	–	–	–	–	251	IC50 ([1]; read-out: pIC50 (converted)): 200 nM; IC50 ([1]; read-out: pIC50 * (converted)): 275 nM; IC50 ([1]; read-out: pIC50 ** (converted)): 115 nM
CCc1nc2sc(C)cn2c1C(=O)NCc1ccc(N2CC3(COC3)C2)cc1 [Compound 27]	–	4070	4170	2880	398	–
CCc1nc2ccc(Cl)cn2c1C(=O)NCc1ccc(N2CC3(CCN(c4ccc(OC(F)(F)F)cc4)CC3)C2)cc1 [Compound 28]	–	6030	7590	7410	3.16	–
CCc1nc2ccc(Cl)cn2c1C(=O)NC1CCC2(CC1)CCN(c1ccc(OC(F)(F)F)cc1)CC2 [Compound 29]	–	7940	6760	7080	7940	–
Cc1nc2sccn2c1C(=O)NCc1ccc(N2CC3(COC3)C2)cc1 [Compound 30]	–	8910	> 12600	11000	7940	–
CCc1c(C(=O)NCc2ccc(N3CC4(CC(F)C4)C3)cc2)c2ccncc2n1C [Compound 31]	–	> 12600	> 12600	> 12600	> 12600	–
CCc1nc2sc(C)cn2c1C(=O)NCc1ccc(N2CC3(C2)CN(c2ccc(OC(F)(F)F)cc2)C3)cc1 [Compound 68]	180.57	–	–	–	63.1	–

Compound	melting point [°C]	IC50 [1, 3] [nM]	IC50 [1, 4] [nM]	IC50 [1, 5] [nM]	IC50 [2] [nM]	other results
CCc1nc2ccc(Cl)cn2c1C(=O)NCc1ccc(N2CCC3(C2)CN(c2ccc(OC(F)(F)F)cc2)C3)cc1 [Compound 75]	183.86	–	–	–	15.8	–
CCc1nc2ccc(Cl)cn2c1C(=O)NCc1ccc(N2CC3(CCN(c4ccc(OC(F)(F)F)cc4)C3)C2)cc1 [Compound 76]	136.04	–	–	–	25.1	–
CCc1nc2n(c1C(=O)NCc1ccc(N3CC4(CC(c5ccc(OC(F)(F)F)cc5)C4)C3)cc1)CCCC2 [Compound 82]	190.78	–	–	–	63.1	–
CCc1nc2sc(C)cn2c1C(=O)NCc1ccc(N2CC3(CC(c4ccc(OC(F)(F)F)cc4)C3)C2)cc1 [Compound 83]	108.84	–	–	–	100	–
CCc1nc2ccc(Cl)cn2c1C(=O)NCc1ccc(N2CC3(CC(OC)C3)C2)cc1 [Compound 84]	137.48	–	–	–	100	–
CCc1nc2n(c1C(=O)NCc1ccc(N3CC4(CC(OC)C4)C3)cc1)CCCC2 [Compound 85]	147.41	–	–	–	1000	–
CCc1nc2ncc(Cl)cn2c1C(=O)NCc1ccc(N2CC3(CC(OC)C3)C2)cc1 [Compound 86]	127.22	–	–	–	158	–
CCc1nc2ccc(Cl)cn2c1C(=O)NCc1ccc(N2CC3(CC(c4ccc(OC)c(F)c4)C3)C2)cc1 [Compound 87]	190.35	–	–	–	251	–
CCc1nc2ncc(Cl)cn2c1C(=O)NCc1ccc(N2CC3(CC(c4ccc(OC)c(F)c4)C3)C2)cc1 [Compound 88]	156.54	–	–	–	251	–
CCc1nc2ccc(Cl)cn2c1C(=O)NCc1ccc(N2CC3(CC(c4ccncc4)C3)C2)cc1 [Compound 89]	192.86	–	–	–	6310	–
CCc1nc2ccc(Cl)cn2c1C(=O)NCc1ccc(N2CC3(CN(C(C)=O)C3)C2)cc1 [Compound 90]	237.63	–	–	–	12600	–
CCc1nc2ccc(Cl)cn2c1C(=O)NCc1ccc(N2CC3(CN(C(=O)c4ccccc4)C3)C2)cc1 [Compound 91]	204.21	–	–	–	10000	–
CCc1nc2ccc(Cl)cn2c1C(=O)NCc1ccc(C2CC3(C2)CN(C(=O)C(F)(F)F)C3)cc1 [Compound 92]	80.75	–	–	–	251	–
CCc1nc2ccc(Cl)cn2c1C(=O)NCc1ccc(N2CC3(C2)CC2(C3)OCCCO2)cc1 [Compound 95]	154.23	–	–	–	158	–
CCc1nc2ccc(Cl)cn2c1C(=O)NCc1ccc(N2CC3(CC(=O)C3)C2)cc1 [Compound 96]	182.82	–	–	–	126	–
CCc1nc2ccc(Cl)cn2c1C(=O)NCc1ccc(N2CC3(CC(OC(F)(F)F)C3)C2)cc1 [Compound 117]	167.85	–	–	–	20	–
Cc1nc2sc(F)cn2c1C(=O)NCc1ccc(N2CC3(CC(=O)C3)C2)cc1 [Compound 118]	201.34	–	–	–	12600	–
CCc1nc2ccc(Cl)cn2c1C(=O)NCc1ccc(C2CC3(C2)CN(c2cccnc2)C3)cc1 [Compound 119]	147.85	–	–	–	631	–
CCc1nc2ccc(Cl)cn2c1C(=O)NCc1ccc(N2CC3(CC(c4ccccn4)C3)C2)cc1 [Compound 120]	139.57	–	–	–	10000	–
CCc1nc2ncc(Cl)cn2c1C(=O)NCc1ccc(N2CC3(C2)CN(c2cccnc2)C3)cc1 [Compound 121]	241.08	–	–	–	2510	–
CCc1nc2ncc(Cl)cn2c1C(=O)NCc1ccc(C2CC3(C2)CN(c2cccnc2)C3)cc1 [Compound 122]	161.23	–	–	–	794	–
CCc1nc2ccc(Cl)cn2c1C(=O)NCc1ccc(N2CC3(CC(n4cncn4)C3)C2)cc1 [Compound 123]	166.63	–	–	–	1580	–
CCc1nc2ccc(Cl)cn2c1C(=O)NCc1ccc(N2CC3(CC(c4nccs4)C3)C2)cc1 [Compound 124]	135.97	–	–	–	79.4	pIC50 [2]: 7.2
CCc1nc2ccc(Cl)cn2c1C(=O)NCc1ccc(N2CCC3(CC2)CC(F)(F)C3)cc1 [Compound 125]	146.77	–	–	–	2	–
